What was measured:
[1] = system: hMB-SLCs; test: Self-renewal, clonogenic assay, hMB-SLCs; format: cell-based, human; settings: 5 μM
Method: For self-renewal assessment, clonogenic assay was performed as previously described. Briefly: oncospheres were disaggregated with non-enzymatic cell dissociation buffer (Sigma) and cells were plated at clonal density (1-2 cells/mm^2) into 96-well plates and cultured for an appropriate number of days (7-15) until oncospheres were countable.

[2] = system: mMB-SLCs; test: Cell viability, MTS assay, mMB-SLCs; format: cell-based, mouse
Method: (§1) In both cell lines, we determined the lowest useful dose of MC3629 (5 μM) and the minimum effective time (48 h) (Figure 2D, 2E and Supplementary Figure 4A and 4B for data at 24 and 72 h). We next evaluated the performance of MC3629 on MB-SLCs in terms of cell viability in regards to other EZH2i in use, confirming the dose selection (Supplementary Figure 4C).
(§2) To evaluate cell viability cells were plated at a density of 5×10^3 cells/well in 96-well plates and were incubated with MTS solution (CellTiter 96® AQueous One Solution Promega).

[3] = molecular target: T1, G9a (Homo sapiens, UniProt Q96KQ7); test: Methyltransferase panel: G9a; format: biochemical; settings: substrate histone H3 1-21
T1 sequence (Q96KQ7 1-1210): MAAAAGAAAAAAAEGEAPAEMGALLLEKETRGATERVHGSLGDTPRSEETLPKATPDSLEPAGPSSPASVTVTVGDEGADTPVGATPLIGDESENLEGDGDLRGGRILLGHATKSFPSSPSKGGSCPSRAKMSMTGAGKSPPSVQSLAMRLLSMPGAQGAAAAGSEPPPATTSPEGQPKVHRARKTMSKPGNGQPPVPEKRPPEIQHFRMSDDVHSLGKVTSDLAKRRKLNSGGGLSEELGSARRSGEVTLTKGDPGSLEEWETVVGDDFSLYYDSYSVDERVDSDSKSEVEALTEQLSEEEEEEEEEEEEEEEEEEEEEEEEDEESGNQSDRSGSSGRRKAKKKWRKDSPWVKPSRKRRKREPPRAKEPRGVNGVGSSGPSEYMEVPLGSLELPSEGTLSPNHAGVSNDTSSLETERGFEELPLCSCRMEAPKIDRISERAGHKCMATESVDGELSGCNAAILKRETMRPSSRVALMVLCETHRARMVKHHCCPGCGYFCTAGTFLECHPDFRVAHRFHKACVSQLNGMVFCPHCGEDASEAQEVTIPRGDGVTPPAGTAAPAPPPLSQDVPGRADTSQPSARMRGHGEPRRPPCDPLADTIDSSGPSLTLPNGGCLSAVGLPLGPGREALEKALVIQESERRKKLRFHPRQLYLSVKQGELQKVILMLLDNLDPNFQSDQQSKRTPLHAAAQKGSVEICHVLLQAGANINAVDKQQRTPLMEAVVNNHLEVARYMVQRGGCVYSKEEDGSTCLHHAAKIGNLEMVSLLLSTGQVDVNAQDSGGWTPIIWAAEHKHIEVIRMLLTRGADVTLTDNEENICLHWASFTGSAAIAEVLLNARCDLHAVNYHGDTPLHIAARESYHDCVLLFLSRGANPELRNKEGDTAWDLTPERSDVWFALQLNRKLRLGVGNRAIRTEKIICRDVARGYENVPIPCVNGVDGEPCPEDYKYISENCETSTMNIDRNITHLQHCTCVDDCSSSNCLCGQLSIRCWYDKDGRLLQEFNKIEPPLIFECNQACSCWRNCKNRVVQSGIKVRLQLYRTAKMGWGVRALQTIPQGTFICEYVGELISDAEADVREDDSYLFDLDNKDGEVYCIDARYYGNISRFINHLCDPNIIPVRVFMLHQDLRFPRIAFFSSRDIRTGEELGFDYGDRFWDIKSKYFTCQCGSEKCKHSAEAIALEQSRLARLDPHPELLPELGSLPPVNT
Method: (§3) MC3629 was tested in the cell free enzymatic assay (EZH2/PRC2) in 10-dose IC50 mode with 2-fold serial dilution starting from 400 μM solution, using various histone substrates (histone H3/H4 octamer, histone H3/H4 tetramer, histone H3, and core histone) and SAM as the co-substrate. […] (Figure 2B, and Supplementary Figure 2).
(§4) The appropriate methyltransferase (MT) substrate (0.05 mg/ml core histone for EZH1 complex, 0.05 mg/ml oligonucleosomes for DOT1L, 5 μM histone H3 (1-21) peptide for G9a, 0.05 mg/ml nucleosomes for MLL1 complex, 0.05 mg/ml core histone for SET7/9, 5 μM histone H4 for PRMT1, and 0.001 mg/ml poly(dI-dC) for DNMT1) was added in freshly prepared Reaction Buffer (50 mM Tris-HCl (pH 8.5), 5 mM MgCl2, 50 mM NaCl, 0.01% Brij35, 1 mM DTT, 1% DMSO). The MT enzyme was delivered into the substrate solution and the mixture was mixed gently. Afterwards, the tested compound dissolved in DMSO was delivered into the enzyme/substrate reaction mixture by using Acoustic Technology (Echo 550, LabCyte Inc. Sunnyvale, CA) in nanoliter range, and 1 μM ^3H-SAM was also added into the reaction mixture to initiate the reaction. The reaction mixture was incubated for 1 h at 30°C and then it was delivered to filter-paper for detection. The data were analyzed using Excel and GraphPad Prism software for IC50 curve fits (for EZH1 complex).

[4] = molecular target: EZH1 complex (Homo sapiens, UniProt Q92800); test: Methyltransferase panel: EZH1 complex; format: biochemical
Method: as §3, §4

[5] = system: H3K27me3 in cerebellum and brain; test: H3K27me3 levels in cerebellum and brain of wild type mice after i.p. treatment; format: in vivo, mouse
Method: CD1 wild-type mice were treated intra-peritoneally with 20 μMoles/Kg of MC3629 (n=8 for each group). Treatment was performed at the age of 8 and 10 days post natal and mice were sacrificed at 12 days post natal. Brain and cerebellum tissues were collected for analysis.

[6] = system: hMB-SLCs; test: Cell viability, MTS assay, hMB-SLCs; format: cell-based, human
Method: as §1, §2

[7] = molecular target: PRMT1 (Homo sapiens, UniProt Q99873); test: Methyltransferase panel: PRMT1; format: biochemical; settings: substrate histone H4
Method: as §3, §4

[8] = dose- and time-dependent experiments

EZH1 complex, sequence (Q92800 whole entry): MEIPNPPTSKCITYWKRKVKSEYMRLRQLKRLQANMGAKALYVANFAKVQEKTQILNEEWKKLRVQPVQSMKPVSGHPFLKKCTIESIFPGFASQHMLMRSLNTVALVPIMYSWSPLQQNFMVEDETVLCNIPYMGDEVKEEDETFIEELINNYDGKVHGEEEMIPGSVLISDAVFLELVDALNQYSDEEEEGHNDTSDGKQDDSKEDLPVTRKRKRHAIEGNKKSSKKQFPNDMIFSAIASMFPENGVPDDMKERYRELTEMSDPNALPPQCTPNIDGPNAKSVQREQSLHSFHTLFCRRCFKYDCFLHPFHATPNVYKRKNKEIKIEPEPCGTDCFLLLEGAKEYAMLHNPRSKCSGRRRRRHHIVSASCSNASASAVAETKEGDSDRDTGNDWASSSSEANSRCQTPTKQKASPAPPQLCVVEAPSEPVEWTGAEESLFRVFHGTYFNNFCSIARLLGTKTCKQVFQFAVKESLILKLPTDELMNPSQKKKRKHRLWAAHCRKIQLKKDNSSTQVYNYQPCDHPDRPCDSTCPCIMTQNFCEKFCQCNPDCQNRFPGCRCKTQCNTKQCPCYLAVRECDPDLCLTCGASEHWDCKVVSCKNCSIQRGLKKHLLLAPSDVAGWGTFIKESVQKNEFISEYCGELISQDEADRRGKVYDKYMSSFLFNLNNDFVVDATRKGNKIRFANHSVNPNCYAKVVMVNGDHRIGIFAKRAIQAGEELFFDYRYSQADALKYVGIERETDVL
EZH1 complex, sequence (O75530 whole entry partner): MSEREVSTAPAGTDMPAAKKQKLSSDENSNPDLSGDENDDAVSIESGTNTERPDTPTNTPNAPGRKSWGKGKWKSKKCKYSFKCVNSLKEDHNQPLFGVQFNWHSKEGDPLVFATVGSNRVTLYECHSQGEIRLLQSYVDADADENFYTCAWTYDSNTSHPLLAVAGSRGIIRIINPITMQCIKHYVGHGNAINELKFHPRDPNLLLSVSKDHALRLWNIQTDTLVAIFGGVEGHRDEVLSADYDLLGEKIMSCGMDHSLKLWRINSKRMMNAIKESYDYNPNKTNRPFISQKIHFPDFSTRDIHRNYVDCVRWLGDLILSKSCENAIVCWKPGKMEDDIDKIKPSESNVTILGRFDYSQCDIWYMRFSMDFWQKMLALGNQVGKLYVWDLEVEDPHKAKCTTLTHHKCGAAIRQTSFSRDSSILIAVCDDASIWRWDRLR
EZH1 complex, sequence (Q15022 whole entry partner): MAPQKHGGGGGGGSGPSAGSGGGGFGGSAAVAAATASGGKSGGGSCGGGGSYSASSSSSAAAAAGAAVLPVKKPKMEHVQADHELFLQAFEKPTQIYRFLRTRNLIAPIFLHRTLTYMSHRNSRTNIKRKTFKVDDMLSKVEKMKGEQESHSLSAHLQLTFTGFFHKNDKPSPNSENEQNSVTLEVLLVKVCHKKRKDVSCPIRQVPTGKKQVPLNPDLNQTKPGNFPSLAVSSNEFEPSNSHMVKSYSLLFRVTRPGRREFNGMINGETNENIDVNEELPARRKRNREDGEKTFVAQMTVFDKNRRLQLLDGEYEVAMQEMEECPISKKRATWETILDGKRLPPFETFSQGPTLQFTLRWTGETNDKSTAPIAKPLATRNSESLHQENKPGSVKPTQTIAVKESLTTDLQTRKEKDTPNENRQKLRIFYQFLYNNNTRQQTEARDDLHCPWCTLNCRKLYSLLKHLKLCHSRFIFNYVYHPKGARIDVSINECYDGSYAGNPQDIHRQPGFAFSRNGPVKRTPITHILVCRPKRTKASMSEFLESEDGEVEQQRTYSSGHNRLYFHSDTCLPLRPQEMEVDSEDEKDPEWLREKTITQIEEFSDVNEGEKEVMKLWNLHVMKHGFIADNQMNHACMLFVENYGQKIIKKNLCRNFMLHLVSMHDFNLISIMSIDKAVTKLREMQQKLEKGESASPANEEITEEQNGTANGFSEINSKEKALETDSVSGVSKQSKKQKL
EZH1 complex, sequence (Q09028 whole entry partner): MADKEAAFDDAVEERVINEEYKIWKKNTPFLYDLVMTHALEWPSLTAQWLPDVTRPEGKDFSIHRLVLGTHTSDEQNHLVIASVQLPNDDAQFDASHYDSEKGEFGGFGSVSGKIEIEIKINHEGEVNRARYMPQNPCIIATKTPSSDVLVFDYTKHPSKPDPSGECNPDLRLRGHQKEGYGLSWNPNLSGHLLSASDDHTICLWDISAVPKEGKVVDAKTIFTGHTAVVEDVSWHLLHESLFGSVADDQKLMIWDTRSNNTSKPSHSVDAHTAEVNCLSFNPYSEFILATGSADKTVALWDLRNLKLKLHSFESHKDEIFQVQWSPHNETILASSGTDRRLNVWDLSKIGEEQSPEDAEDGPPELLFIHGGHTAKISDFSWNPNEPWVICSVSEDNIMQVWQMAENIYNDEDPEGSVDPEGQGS
EZH1 complex, sequence (Q6ZN18 whole entry partner): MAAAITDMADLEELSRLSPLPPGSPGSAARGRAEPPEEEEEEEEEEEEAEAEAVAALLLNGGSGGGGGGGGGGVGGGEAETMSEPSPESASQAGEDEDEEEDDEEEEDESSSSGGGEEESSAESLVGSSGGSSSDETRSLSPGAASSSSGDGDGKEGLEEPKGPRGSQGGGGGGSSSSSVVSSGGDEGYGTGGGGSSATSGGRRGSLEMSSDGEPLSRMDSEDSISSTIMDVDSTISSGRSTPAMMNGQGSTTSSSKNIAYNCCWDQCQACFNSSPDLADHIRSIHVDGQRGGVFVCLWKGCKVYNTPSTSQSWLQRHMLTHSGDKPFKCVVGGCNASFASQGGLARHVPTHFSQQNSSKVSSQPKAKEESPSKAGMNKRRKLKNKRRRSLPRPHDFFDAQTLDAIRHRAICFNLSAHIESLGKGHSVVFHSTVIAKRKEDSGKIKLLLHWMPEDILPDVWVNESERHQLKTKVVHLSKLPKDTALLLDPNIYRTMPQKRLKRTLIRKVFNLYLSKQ
PRMT1, sequence (Q99873 whole entry, species assumed): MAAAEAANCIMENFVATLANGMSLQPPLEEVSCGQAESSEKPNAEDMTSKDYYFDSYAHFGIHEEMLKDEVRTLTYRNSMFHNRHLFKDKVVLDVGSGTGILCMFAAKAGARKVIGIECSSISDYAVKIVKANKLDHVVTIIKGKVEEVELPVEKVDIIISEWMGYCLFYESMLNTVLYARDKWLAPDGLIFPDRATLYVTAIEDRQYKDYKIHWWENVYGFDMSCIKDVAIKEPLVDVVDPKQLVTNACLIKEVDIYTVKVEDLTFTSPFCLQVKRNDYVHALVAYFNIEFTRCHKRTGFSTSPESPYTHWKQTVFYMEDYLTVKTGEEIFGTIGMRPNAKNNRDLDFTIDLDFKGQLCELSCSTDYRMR

Cc1cc(C)c(CNC(=O)c2cnn(-c3ccccc3)c2C)c(=O)[nH]1 [MC3629, N-((4,6-dimethyl-2-oxo-1,2-dihydropyridin-3-yl)methyl)-5-methyl-1-phenyl-1H-pyrazole-4-carboxamide]
self-renewal [1]: significantly reduced
minimum effective time, cell viability [2]: 48 h
lowest useful dose, cell viability [2, 8]: 5 µM
inhibition at 200 µM [3]: 5.1%
inhibition at 200 µM ([4]; 200 μM, substrate histone H3/H4 octamer): 62.4%
IC50 ([4]; footnote of Supplementary Table 1): 138 µM
H3K27me3 levels in brain ([5]; 20 μMol/Kg intra-peritoneal): reduced levels
H3K27me3 levels in cerebellum ([5]; 20 μMol/Kg intra-peritoneal, twice/week): significant reduction
ability to cross the BBB in vivo ([5]; inferred from reduced H3K27me3 in cerebellum and brain, 20 μMol/Kg i.p.): crosses the BBB
minimum effective time, cell viability [6]: 48 h
cell viability, combination with shEZH2 versus shEZH2 alone ([6]; 5 μM, 48 h): did not display any additive effect
lowest useful dose, cell viability [6, 8]: 5 µM
inhibition at 200 µM [7]: 5.7%

Source: article PMC5620277, “The histone methyltransferase EZH2 as a druggable target in SHH medulloblastoma cancer stem cells” (Oncotarget, 2017)
